Nine molecules from PubChem BioAssay AID1259407 (Chemical Carcinogenesis Research Information System (CCRIS), 2018) can be followed below.

The data set deals with CCRIS mutagenicity, Ames/micronucleus/aberration tests. The data set is described as follows: CCRIS mutagenicity studies.
Where [1] appears, read: Test System: AMES SALMONELLA TYPHIMURIUM, Strain/Indicator: TA98, Metabolic Activation: NONE, Method: PREINCUBATION
Setting [2] is: Test System: AMES SALMONELLA TYPHIMURIUM, Strain/Indicator: TA100, Metabolic Activation: NONE, Method: PREINCUBATION
Where [3] appears, read: Test System: AMES SALMONELLA TYPHIMURIUM, Strain/Indicator: TA98, Metabolic Activation: RAT, LIVER, S-9, AROCLOR 1254, Method: PREINCUBATION
The mark [4] stands for this setting: Test System: AMES SALMONELLA TYPHIMURIUM, Strain/Indicator: TA100, Metabolic Activation: RAT, LIVER, S-9, AROCLOR 1254, Method: PREINCUBATION
The mark [5] stands for this setting: Test System: AMES SALMONELLA TYPHIMURIUM, Strain/Indicator: TA98, Metabolic Activation: NONE, Method: STANDARD PLATE.
Where [6] appears, read: Test System: AMES SALMONELLA TYPHIMURIUM, Strain/Indicator: TA100, Metabolic Activation: NONE, Method: STANDARD PLATE.
Where [7] appears, read: Test System: AMES SALMONELLA TYPHIMURIUM, Strain/Indicator: TA98, Metabolic Activation: RAT, LIVER, S-9, AROCLOR 1254, Method: STANDARD PLATE.

Activity calls are given as the source filed them. How the calls were made is not given here.

For the molecule `CCOc1ccc(N=Nc2ccc(-c3ccc(N=Nc4c(O)ccc5cc(S(=O)(=O)O)cc(S(=O)(=O)O)c45)c(C)c3)cc2C)cc1`, the mutagenic call by setting is: (Test System: AMES SALMONELLA TYPHIMURIUM, Strain/Indicator: TA98, Metabolic Activation: HAMSTER, LIVER, S-9, AROCLOR 1254 (10%), Method: PREINCUBATION) “inactive; negative”; under setting [1], “inactive; negative”; (Test System: AMES SALMONELLA TYPHIMURIUM, Strain/Indicator: TA98, Metabolic Activation: RAT, LIVER, S-9, AROCLOR 1254 (10%), Method: PREINCUBATION) “inactive; negative”; (Test System: AMES SALMONELLA TYPHIMURIUM, Strain/Indicator: TA100, Metabolic Activation: HAMSTER, LIVER, S-9, AROCLOR 1254 (10%), Method: PREINCUBATION) “inactive; negative”; under setting [2], “inactive; negative”; (Test System: AMES SALMONELLA TYPHIMURIUM, Strain/Indicator: TA100, Metabolic Activation: RAT, LIVER, S-9, AROCLOR 1254 (10%), Method: PREINCUBATION) “inactive; negative”. For the same molecule, the mutagenic call (Test System: AMES SALMONELLA TYPHIMURIUM, Strain/Indicator: TA1535, Metabolic Activation: HAMSTER, LIVER, S-9, AROCLOR 1254 (10%), Method: PREINCUBATION) was “inactive; negative”; the mutagenic call (Test System: AMES SALMONELLA TYPHIMURIUM, Strain/Indicator: TA1535, Metabolic Activation: NONE, Method: PREINCUBATION) was “inactive; negative”; the mutagenic call (Test System: AMES SALMONELLA TYPHIMURIUM, Strain/Indicator: TA1535, Metabolic Activation: RAT, LIVER, S-9, AROCLOR 1254 (10%), Method: PREINCUBATION) was “inactive; negative”; the mutagenic call (Test System: AMES SALMONELLA TYPHIMURIUM, Strain/Indicator: TA1537, Metabolic Activation: HAMSTER, LIVER, S-9, AROCLOR 1254 (10%), Method: PREINCUBATION) is “inactive; negative”; the mutagenic call (Test System: AMES SALMONELLA TYPHIMURIUM, Strain/Indicator: TA1537, Metabolic Activation: NONE, Method: PREINCUBATION) is “inactive; negative”; the mutagenic call (Test System: AMES SALMONELLA TYPHIMURIUM, Strain/Indicator: TA1537, Metabolic Activation: RAT, LIVER, S-9, AROCLOR 1254 (10%), Method: PREINCUBATION) is “inactive; negative”. Also, where the note is “Test System: AMES SALMONELLA TYPHIMURIUM, Strain/Indicator: TA1538, Metabolic Activation: RAT, LIVER, S-9, AROCLOR 1254, Method: STANDARD PLATE”, the mutagenic call is “active; positive”.
Consider `CNc1ccc2ncc(C)nc2c1N`, for which the mutagenic call is “inactive; negative” under setting [1], “inactive; negative” under setting [3], “inactive; negative” under setting [2] and “inactive; negative” under setting [4].
With `CCCCc1oc2ccccc2c1C(=O)c1cc(I)c(OCCN(CC)CC)c(I)c1`, the mutagenic call was “inactive; negative” (End Point: In vivo chromosomal aberrations, Test System: Bone marrow cells, Species: Rat, Strain/Sex: SHR (spontaneously hypertensive)/Female, Route: Oral) and “active; positive” (End Point: In vivo chromosomal aberrations, Test System: Bone marrow cells, Species: Rat, Strain/Sex: Wistar-Kyoto (WKY)/Female, Route: Oral).
Consider `Nc1ccc(Oc2ccc([N+](=O)[O-])cc2)cc1`, for which the mutagenic call is, setting by setting: (Test System: AMES SALMONELLA TYPHIMURIUM, Strain/Indicator: TA98(NR), Metabolic Activation: NONE, Method: PREINCUBATION) “inactive; negative”; (Test System: AMES SALMONELLA TYPHIMURIUM, Strain/Indicator: TA98(NR), Metabolic Activation: RAT, LIVER, S-9, AROCLOR 1254, Method: PREINCUBATION) “active; positive”; under setting [1], “active; positive”; under setting [3], “active; positive”; (Test System: AMES SALMONELLA TYPHIMURIUM, Strain/Indicator: TA100(NR), Metabolic Activation: NONE, Method: PREINCUBATION) “active; positive”; (Test System: AMES SALMONELLA TYPHIMURIUM, Strain/Indicator: TA100(NR), Metabolic Activation: RAT, LIVER, S-9, AROCLOR 1254, Method: PREINCUBATION) “active; positive”. For the same molecule, the mutagenic call was “active; positive” under setting [2] and “active; positive” under setting [4].
Regarding `CCCCOc1ccc2nc3cc(Cl)ccc3c(NCCCN(CC)CCCl)c2n1`, the mutagenic call runs as follows: under setting [5], “active; positive”; under setting [6], “inactive; negative”; (Test System: AMES SALMONELLA TYPHIMURIUM, Strain/Indicator: TA1535, Metabolic Activation: NONE, Method: STANDARD PLATE) “inactive; negative”; (Test System: AMES SALMONELLA TYPHIMURIUM, Strain/Indicator: TA1536, Metabolic Activation: NONE, Method: STANDARD PLATE) “active; positive”; (Test System: AMES SALMONELLA TYPHIMURIUM, Strain/Indicator: TA1537, Metabolic Activation: NONE, Method: STANDARD PLATE) “active; positive”; (Test System: AMES SALMONELLA TYPHIMURIUM, Strain/Indicator: TA1538, Metabolic Activation: NONE, Method: STANDARD PLATE) “active; positive”.
Turning to `CC(=O)Nc1ccc(C(=O)/C=C/c2ccccc2)cc1`, the mutagenic call reads like this: under setting [5], “inactive; negative”; under setting [7], “inactive; negative”; under setting [6], “inactive; negative”; (Test System: AMES SALMONELLA TYPHIMURIUM, Strain/Indicator: TA100, Metabolic Activation: RAT, LIVER, S-9, AROCLOR 1254, Method: STANDARD PLATE) “inactive; negative”.
Regarding `COc1ccc2c(c1)C(=O)c1nccc3cc(OC)c(OC)c-2c13`, the mutagenic call (Test System: AMES SALMONELLA TYPHIMURIUM, Strain/Indicator: TA100, Metabolic Activation: RAT, LIVER, S-9, PHENOBARBITAL AND BETA-NAPHTHOFLAVONE, Method: PREINCUBATION) is “active; positive”.
Consider `CC1Cc2cccc3c2N1C(C)C3.CC1Cc2cccc3c2N1C(C)C3.[Cl-].[Cl-].[Cl-].[Cl-].[Pt+2].[Pt+2]` (stereo not given), for which the mutagenic call was “inactive; negative” (Test System: AMES SALMONELLA TYPHIMURIUM, Strain/Indicator: TA92, Metabolic Activation: NONE, Method: STANDARD PLATE); “inactive; negative” under setting [5]; “inactive; negative” under setting [6]; “inactive; negative” (Test System: AMES SALMONELLA TYPHIMURIUM, Strain/Indicator: TA2410, Metabolic Activation: NONE, Method: STANDARD PLATE); “inactive; negative” (Test System: E. COLI, Strain/Indicator: TM6, Metabolic Activation: NONE, Method: STANDARD PLATE); “inactive; negative” (Test System: E. COLI, Strain/Indicator: TM9, Metabolic Activation: NONE, Method: STANDARD PLATE).
For `CC(=O)N(Nc1ccc2c(c1)Cc1ccccc1-2)c1ccc2c(c1)Cc1ccccc1-2`, the mutagenic call under setting [7] is “active; positive”.
